Columns and labels:
CDK12/CycK = CDK12/CycK (Homo sapiens, UniProt Q9NYV4); assay: CDK12/CycK high ATP kinase assay (TR-FRET, 2 mM ATP); type: biochemical; settings: 2 mM ATP (high ATP); median; read-out: CDK12/CyclinK, 2 mM ATP (high ATP), IC50-[mol/l] (median)
Method in brief: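 His-tagged human CDK12/CycK (~0.75 nM) pre-incubated 15 min with compound, then 60 min at 22 °C with 2 mM ATP and 1 µM biotinylated peptide (HEPES pH 7.5, 20 mM MgCl2). EDTA stop; phospho-Ser62 antibody/Eu anti-rabbit and streptavidin-XL665 TR-FRET, 665/620 nm ratio normalised to give IC50.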

[1] = test system: CAL-120, human breast adenocarcinoma cells; assay: Proliferation assay CAL-120 (crystal violet, 4 days); type: cell-based; settings: Homo sapiens, CAL-120, 96 h, CAL-120 cells, median, read-out: Prolif-CAL-120, IC50-[mol/l] (median)
Method in brief: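 CAL-120 or MDA-MB-231 cells grown 24 h, then exposed 4 days to compound (0.01–10 micromol/L, 0.1% DMSO). Crystal violet staining, absorbance at 595 nm, normalised to a zero-point plate (0%) and untreated cells (100%); IC50 by 4-parameter fit.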

[2] = biological target: T1, CYCLIN K (nuclear staining in CAL-120 cells) (Homo sapiens, UniProt O75909); assay: CYCLIN K nuclear protein level: immunofluorescence high content analysis (CAL-120); type: cell-based; settings: 24 h, 50% reduction of nuclear CCNK staining intensity, median, read-out: CYCLIN K degradation IF, DC50-[mol/l] (median)
T1 construct: endogenous in cells; host or cells: CAL-120 human breast cancer cells (DSMZ ACC 459)
Method in brief: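 CAL-120 breast cancer cells treated in dose-response for 24 h at 37 °C, PFA-fixed and immunostained for cyclin K with Hoechst counterstain. Confocal imaging quantified nuclear intensity; DC50 is the concentration giving 50% reduction of nuclear CCNK staining, normalized to DMSO and control.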

Sequence of CDK12/CycK (Q9NYV4 with tags, fused parts or gaps): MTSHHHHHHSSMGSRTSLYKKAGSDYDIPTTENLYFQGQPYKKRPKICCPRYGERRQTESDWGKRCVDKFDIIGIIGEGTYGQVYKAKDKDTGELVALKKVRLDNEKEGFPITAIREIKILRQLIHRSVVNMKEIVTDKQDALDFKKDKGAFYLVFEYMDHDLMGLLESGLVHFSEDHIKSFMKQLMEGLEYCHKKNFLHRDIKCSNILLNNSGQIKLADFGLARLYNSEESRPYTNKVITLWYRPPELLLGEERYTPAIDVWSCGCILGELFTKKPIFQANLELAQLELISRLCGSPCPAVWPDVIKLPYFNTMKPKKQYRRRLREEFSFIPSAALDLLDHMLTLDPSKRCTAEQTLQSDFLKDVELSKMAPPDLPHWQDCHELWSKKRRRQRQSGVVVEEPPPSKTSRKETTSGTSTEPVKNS
Sequence of CDK12/CycK (O75909 1-300 partner limits assumed): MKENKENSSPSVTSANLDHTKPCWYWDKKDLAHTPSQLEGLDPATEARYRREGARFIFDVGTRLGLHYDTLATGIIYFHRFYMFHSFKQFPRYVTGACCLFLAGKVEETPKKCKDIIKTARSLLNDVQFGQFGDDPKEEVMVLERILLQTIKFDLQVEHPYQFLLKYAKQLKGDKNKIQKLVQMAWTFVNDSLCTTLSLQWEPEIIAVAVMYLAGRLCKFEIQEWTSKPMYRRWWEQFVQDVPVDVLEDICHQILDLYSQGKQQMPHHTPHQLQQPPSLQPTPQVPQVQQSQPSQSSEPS
T1 sequence (O75909 whole entry): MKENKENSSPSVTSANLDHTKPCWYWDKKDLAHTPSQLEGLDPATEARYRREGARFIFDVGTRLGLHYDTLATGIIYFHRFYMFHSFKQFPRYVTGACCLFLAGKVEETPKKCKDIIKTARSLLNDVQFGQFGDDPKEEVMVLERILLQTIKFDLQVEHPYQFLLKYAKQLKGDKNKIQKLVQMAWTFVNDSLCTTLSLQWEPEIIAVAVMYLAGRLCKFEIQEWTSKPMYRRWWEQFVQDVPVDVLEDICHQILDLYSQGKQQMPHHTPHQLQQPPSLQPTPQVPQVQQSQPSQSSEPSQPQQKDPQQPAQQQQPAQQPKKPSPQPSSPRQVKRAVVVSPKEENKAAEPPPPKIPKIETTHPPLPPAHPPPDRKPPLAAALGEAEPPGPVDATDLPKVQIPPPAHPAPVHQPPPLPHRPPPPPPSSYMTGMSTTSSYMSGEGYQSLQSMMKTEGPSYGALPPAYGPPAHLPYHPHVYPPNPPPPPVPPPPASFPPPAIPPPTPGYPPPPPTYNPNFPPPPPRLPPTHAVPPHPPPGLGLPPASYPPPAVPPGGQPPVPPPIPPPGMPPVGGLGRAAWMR
T1 sequence (Q9NYV4 whole entry partner): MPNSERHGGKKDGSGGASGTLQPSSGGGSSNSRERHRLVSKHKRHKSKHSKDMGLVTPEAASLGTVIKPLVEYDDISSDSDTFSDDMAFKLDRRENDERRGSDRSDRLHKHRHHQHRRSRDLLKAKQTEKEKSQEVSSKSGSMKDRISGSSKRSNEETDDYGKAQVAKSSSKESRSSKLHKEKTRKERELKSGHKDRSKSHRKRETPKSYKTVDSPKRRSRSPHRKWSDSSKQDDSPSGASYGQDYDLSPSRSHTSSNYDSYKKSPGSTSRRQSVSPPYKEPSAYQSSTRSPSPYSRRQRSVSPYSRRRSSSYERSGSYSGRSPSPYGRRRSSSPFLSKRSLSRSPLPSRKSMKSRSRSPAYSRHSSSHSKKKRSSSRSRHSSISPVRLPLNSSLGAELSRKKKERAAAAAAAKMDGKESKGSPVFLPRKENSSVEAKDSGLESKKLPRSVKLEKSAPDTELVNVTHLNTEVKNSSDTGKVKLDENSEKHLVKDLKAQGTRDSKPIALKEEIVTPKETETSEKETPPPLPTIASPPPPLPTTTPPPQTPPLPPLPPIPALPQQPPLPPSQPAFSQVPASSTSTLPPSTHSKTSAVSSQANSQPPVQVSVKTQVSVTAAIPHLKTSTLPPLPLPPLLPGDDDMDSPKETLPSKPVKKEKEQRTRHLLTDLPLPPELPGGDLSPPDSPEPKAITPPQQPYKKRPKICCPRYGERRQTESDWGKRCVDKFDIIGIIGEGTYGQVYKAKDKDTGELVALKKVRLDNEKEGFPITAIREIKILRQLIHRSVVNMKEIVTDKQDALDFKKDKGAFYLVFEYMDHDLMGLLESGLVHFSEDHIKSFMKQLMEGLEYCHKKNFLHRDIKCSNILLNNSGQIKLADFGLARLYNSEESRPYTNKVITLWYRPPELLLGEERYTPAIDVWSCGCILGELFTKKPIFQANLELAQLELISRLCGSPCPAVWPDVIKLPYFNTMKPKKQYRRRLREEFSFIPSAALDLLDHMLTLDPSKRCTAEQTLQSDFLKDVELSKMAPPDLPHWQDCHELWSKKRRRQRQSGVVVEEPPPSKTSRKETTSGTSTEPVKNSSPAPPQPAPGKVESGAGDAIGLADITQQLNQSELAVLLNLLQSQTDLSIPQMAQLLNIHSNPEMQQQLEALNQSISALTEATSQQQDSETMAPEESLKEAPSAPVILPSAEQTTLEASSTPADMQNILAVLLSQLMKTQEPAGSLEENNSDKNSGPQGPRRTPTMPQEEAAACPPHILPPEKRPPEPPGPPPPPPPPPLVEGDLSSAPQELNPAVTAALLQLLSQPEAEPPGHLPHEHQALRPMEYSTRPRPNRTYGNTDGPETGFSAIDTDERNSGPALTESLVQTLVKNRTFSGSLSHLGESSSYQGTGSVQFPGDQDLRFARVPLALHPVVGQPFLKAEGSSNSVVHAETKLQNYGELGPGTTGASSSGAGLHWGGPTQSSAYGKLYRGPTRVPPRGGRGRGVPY

Structure (SMILES) | IC50 (CDK12/CycK) | IC50 [1] | DC50 [2]
Brc1cnn2c(NCc3nc4ccccc4[nH]3)nc(N3CCOCC3C3CC3)nc12 (stereo not drawn) [Example 117, N-(1H-benzimidazol-2-ylmethyl)-8-bromo-2-(3-cyclopropylmorpholin-4-yl)pyrazolo[1,5-a][1,3,5]triazin-4-amine] | 4820 nM | 23.1 nM | 2.62 nM
Brc1cnn2c(NCc3nnc(-c4ccccc4)[nH]3)nc(N3CCNCC3)nc12.O=CO [Example 119, 8-bromo-N-[(5-phenyl-4H-1,2,4-triazol-3-yl)methyl]-2-piperazin-1-yl-pyrazolo[1,5-a][1,3,5]triazin-4-amine formate] | 6620 nM | 7.75 nM | 3 nM
c1ccc2[nH]c(CNc3nc(N4CCOCC4)nc4c(-c5ccncc5)cnn34)nc2c1 [Example 111, N-[(1H-benzimidazol-2-yl)methyl]-2-(morpholin-4-yl)-8-(pyridin-4-yl)pyrazolo[1,5-a][1,3,5]triazin-4-amine hydrogen chloride (1/1)] | > 1630 nM | 8.96 nM | 1 nM
Brc1cnn2c(NCc3nc4ccccc4[nH]3)nc(N3C[C@@H]4CCCN[C@@H]4C3)nc12 [Example 146, N-[(1H-benzimidazol-2-yl)methyl]-8-bromo-2-[(4aS,7aS)-octahydro-6H-pyrrolo[3,4-b]pyridin-6-yl]pyrazolo[1,5-a][1,3,5]triazin-4-amine] | 8860 nM | 31 nM | 0.56 nM
Brc1cnn2c(NCc3nc4ccccc4[nH]3)nc(N3CCN4CCC[C@H]4C3)nc12 [Example 148, N-[(1H-benzimidazol-2-yl)methyl]-8-bromo-2-[(8aS)-hexahydropyrrolo[1,2-a]pyrazin-2 (1 H)-yl]pyrazolo[1,5-a][1,3,5]triazin-4-amine] | 10800 nM | 109 nM | 8.06 nM

Other lines, results leading:

IC50 (CDK12/CycK) | IC50 [1] | DC50 [2] | Structure (SMILES)
4460 nM | 1.17 nM | 0.367 nM | Cc1ccc2[nH]c(CNc3nc(N4CCN(C)CC4)nc4c(Br)cnn34)nc2c1 [Example 158, 8-bromo-N-[(5-methyl-1H-benzimidazol-2-yl)methyl]-2-(4-methylpiperazin-1-yl)pyrazolo[1,5-a][1,3,5]triazin-4-amine]
2950 nM | 5.78 nM | 1.42 nM | Fc1cccc(-c2nnc(CNc3nc(N4C[C@H]5C[C@@H]4CO5)nc4c(Br)cnn34)[nH]2)c1 [Example 153, 8-bromo-N-{[5-(3-fluorophenyl)-4H-1,2,4-triazol-3-yl]methyl}-2-[(1R,4R)-2-oxa-5-azabicyclo[2.2.1]heptan-5-yl]pyrazolo[1,5-a][1,3,5]triazin-4-amine]
